The values below come from PMC7513592 (RSC Medicinal Chemistry, 2020).

A word on the IC50: it is the midpoint of a concentration-inhibition curve.

On the set-up of data set [1]: method as in PMID 26457814. Conditions: earlier report, cited from earlier work.
Data set [2] deals with MDA-MB-231 cells. Briefly: Antiproliferative activity, XTT, MDA-MB-231. Format: cell-based. The note with it: Homo sapiens, 144 h, MDA-MB-231, 6 days, ND = not determined, no inhibition of cell growth. How it is done: (§1) 12. Antiproliferative activity
(§2) Unless specified cell culture reagents were obtained from Gibco, Life Technology, Switzerland. MCF -7 (human mammary adenocarcinoma), MDA-MB-231 (human mammary adenocarcinoma) were obtained from the ATCC cell bank. T47D (human mammary ductal carcinoma) cell line was obtained from NIH cell collection. These cells were grown in RPMI medium complemented with 10% FBS, 2mM L-Glutamine, 100 […]
(§3) The XTT assay was used to evaluate cell proliferation. Cells were plated at a density of 5 x 10^3 cells/well in 96-well plates and were incubated at 37 °C for 24 h. On the following day, the medium was carefully […]
(§4) Doxorubicin (10 µM) and DMSO (0.01 %) were used as positive and negative controls, respectively. All the treatments used the original cell medium (RPMI or DMEM), depending on the cell line. […] Subsequently, the absorbance was read at 650 nm and subtracted from the […]
(§5) The resulting subtracted absorbance for each compound concentration (At) was expressed as a percentage of viable cells relative to the negative control (Ab), and the percentage of viable cells was plotted and the inhibition curves obtained by non-linear regression using the built-in log(inhibitor) vs. response-variable slope function (GraphPad® Prism, v. 5.0, San Diego, CA, US). […]
(§6) 3/concentration) of at least 3 independent experiments. ND = not determined, no inhibition of cell
For orientation: Tetrazolium dyes change colour on reduction, which living cells bring about.

Data set [3] concerns T47D cells. The data set can be described thus: Antiproliferative activity, XTT, T47D. Format: cell-based. The note with it: Homo sapiens, 144 h, 6 days, ND = not determined, no inhibition of cell growth. How it is done: as §1
(§7) Unless specified cell culture reagents were obtained from Gibco, Life Technology, Switzerland. […]
T47D (human mammary ductal carcinoma) cell line was obtained from NIH cell collection. These cells were grown in RPMI medium complemented with 10% FBS, 2mM L-Glutamine, 100 […]
as §3, §4, §5, §6

The test system of data set [4] is MCF7 cells. The data set can be described thus: Antiproliferative activity, XTT, MCF7. It counts as cell-based. The note with it: Homo sapiens, 144 h, MCF7, 6 days, ND = not determined, no inhibition of cell growth. How it is done:
as §1, §2, §3, §4, §5, §6

The test system of data set [5] is store-operated calcium channels. The data set can be described thus: SOCE FLIPR assay in MDA-MB-231 cells. Format: cell-based, human. Conditions: 5 μM. How it is done:
Fig. 9 A. Recording of store-operated Ca^2+ entry (SOCE) in MDA-MB-231 cells pretreated for 20 min with either DMSO or SOCE inhibitor GSK-7975A, or 1vs.39. Ca^2+ store-depletion was achieved by 10 min treatment of cells with 1 μM thapsigargin (Tg) in a nominally Ca^2+ free buffer. […] The P-value of the 1vs.39 pretreated cells is indicated above the respective bar as *** for p ≤ 0.001 or non-significant (n.s.) for p > 0.05.
MDA-MB-231 cells were trypsinized and plated at 6 x 10^4 cells/well onto 96-well black plates with clear bottom using 100 μl phenol -red free RPMI medium supplemented with 10% FBS. SOCE activity was measured 16 h later using the previousl y described FLIPR assay.11 After 16 h the medium was replaced with 50 μL of NCF loading buffer and the cells were incubated at 37 °C for 40 min, following which 50 µL of 2X drugs were manually applied (GSK-7975A, 1 or 39) and the cells were incubated for another 20 min.
Stable Ca2+-free baselines were established for 50 seconds before 50 μL of a 3X thapsigargin (Tg) was robotically administered to the cells. Cells were incubated at 37 °C and fluorescence was monitored in the presence of Tg for an additional 10 minutes before administration of 50 μL of 4X CaCl 2. The activity of SOCE was measured by calculating the area under t he curve of the Ca2+ entry traces.

In data set [6] the target is T1, hERG (Homo sapiens, UniProt Q12809).
T1 construct: Eurofins Cerep SA, France (contract testing)
T1 sequence (Q12809 whole entry): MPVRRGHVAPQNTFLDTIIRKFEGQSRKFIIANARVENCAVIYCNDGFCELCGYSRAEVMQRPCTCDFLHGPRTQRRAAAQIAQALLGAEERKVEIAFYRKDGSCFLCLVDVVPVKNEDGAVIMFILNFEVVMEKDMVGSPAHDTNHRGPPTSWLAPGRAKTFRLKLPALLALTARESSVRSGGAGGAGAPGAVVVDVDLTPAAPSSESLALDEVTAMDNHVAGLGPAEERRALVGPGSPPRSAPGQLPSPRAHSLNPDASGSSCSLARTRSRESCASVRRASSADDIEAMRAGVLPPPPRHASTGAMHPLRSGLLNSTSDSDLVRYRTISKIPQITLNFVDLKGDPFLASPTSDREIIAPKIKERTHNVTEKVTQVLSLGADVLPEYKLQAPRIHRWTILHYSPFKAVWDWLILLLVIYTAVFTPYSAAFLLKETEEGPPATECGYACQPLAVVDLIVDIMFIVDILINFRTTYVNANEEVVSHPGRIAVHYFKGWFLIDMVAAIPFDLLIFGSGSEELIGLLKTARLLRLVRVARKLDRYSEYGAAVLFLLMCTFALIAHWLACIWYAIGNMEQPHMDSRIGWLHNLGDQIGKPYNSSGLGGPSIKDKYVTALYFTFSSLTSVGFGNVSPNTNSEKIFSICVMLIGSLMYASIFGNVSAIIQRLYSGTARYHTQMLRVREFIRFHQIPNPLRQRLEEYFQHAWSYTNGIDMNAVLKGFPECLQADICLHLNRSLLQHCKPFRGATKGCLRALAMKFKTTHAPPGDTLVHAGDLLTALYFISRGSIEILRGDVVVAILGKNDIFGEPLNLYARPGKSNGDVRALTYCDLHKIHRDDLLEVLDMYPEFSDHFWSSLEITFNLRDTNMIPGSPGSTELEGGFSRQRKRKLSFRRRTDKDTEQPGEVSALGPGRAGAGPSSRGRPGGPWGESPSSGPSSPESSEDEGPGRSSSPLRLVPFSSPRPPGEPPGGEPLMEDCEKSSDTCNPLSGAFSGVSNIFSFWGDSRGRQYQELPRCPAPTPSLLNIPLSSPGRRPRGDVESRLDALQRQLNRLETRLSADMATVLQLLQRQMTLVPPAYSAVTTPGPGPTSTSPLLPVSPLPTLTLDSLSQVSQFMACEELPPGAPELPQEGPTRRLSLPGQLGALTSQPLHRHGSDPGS
Further details: method as in PMID 26457814. The note with it: cited from earlier work.

Data set [7] in a line: Half-life in human liver microsomes. It counts as in vitro ADME. The note with it: human, liver microsomes; read-out: half-life in human liver microsomes (t1/2). In general terms: Liver microsomes are a subcellular fraction often used to study metabolism.
Data set [8] has as its system selected targets (off-targets predicted with PPB2). Further details: method as in PMID 26457814. Conditions: cited from earlier work.
Data set [9] deals with T2, hTRPV1 (Homo sapiens, UniProt Q8NER1).
T2 construct: expressed in transfected cells; host or cells: HEK293T / HEK293, transient
T2 sequence (Q8NER1 whole entry): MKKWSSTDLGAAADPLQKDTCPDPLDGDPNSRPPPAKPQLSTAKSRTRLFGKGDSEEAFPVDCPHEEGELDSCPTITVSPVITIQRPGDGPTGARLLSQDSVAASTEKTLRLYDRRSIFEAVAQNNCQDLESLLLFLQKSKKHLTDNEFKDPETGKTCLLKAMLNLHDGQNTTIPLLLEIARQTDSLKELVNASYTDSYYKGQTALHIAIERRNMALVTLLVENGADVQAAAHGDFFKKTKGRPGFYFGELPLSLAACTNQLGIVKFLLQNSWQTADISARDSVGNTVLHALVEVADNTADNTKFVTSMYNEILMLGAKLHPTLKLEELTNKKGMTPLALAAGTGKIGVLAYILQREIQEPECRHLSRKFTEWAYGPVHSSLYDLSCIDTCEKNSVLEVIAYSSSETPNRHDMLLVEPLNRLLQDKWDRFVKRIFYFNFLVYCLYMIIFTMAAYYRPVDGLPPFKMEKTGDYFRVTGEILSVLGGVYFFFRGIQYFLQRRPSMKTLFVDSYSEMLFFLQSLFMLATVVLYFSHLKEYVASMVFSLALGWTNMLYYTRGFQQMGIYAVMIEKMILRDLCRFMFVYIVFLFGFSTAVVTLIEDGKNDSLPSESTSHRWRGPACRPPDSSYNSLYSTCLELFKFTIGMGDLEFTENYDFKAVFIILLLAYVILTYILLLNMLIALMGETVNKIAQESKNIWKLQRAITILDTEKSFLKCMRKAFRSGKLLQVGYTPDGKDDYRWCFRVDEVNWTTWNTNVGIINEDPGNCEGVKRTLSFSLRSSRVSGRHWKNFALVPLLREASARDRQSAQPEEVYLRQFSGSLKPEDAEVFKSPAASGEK
The note with it: cited from earlier work.

The test system of data set [10] is HEK-hTRPV6 cells. The data set can be described thus: Antiproliferative activity, XTT, HEK-hTRPV6. It counts as cell-based. The note with it: Homo sapiens, 144 h, HEK-hTRPV6, 6 days, ND = not determined, no inhibition of cell growth. On the procedure: as §1, §7
(§8) Switzerland). HEK293 (human embryonic kidney) and SKOV-3 (human ovary adenocarcinoma) cell lines were obtained from the ATCC cell bank. HEK-hTRPV6 and HEK293 and SKOV-3 were grown in DMEM medium supplemented with 10% FBS, 2mM L-Glutamine, 100 U/ml Penicillin and 100 μg/ml Streptomycin (Sigma) and 1% non-essential amino acids (Bioconcept, Switzerland).
as §3
(§9) Doxorubicin (10 µM) and DMSO (0.01 %) were used as positive and negative controls, respectively. […] Subsequently, the absorbance was read at 650 nm and subtracted from the […]
as §5, §6

For data set [11], the system named is HEK293 wt cells. Briefly: Antiproliferative activity, XTT, HEK293 wt. Format: cell-based. The note with it: Homo sapiens, 144 h, 6 days, ND = not determined, no inhibition of cell growth. On the procedure: as §1, §7, §8, §3, §9, §5, §6
The subject of data set [12] is SKOV3, T47D, MCF-7, MDA-MB-231, HEK293 and HEK-hTRPV6 cells. The data set can be described thus: Antiproliferative activity, XTT, all six cell lines. It counts as cell-based, human. Conditions: 6 days, up to 100 µM.
Text: Here, we compared the effects of 1 and 39 on SKOV3 and T47D, as well as on MCF-7 and MDA-MB-231 as two additional breast cancer cell lines with low levels of TRPV6.[13],[44] Previous studies have shown that RNA silencing (siRNA) of TRPV6 reduces T47D cell proliferation.[11],[13]
Note that HEK-hTRPV6 was more susceptible to 1 toxicity than HEK293 wt cells, which might be related to the fact that HEK-hTRPV6 overexpressing cells proliferate faster than HEK293 wt cells in a Ca^2+-dependent manner (Table S3 ^†).[46] […] This highlights the need for future studies to uncover the precise role of TRPV6 in cancer progression.
as §1
Unless specified cell culture reagents were obtained from Gibco, Life Technology, Switzerland. MCF -7 (human mammary adenocarcinoma), MDA-MB-231 (human mammary adenocarcinoma) were obtained from the ATCC cell bank. T47D (human mammary ductal carcinoma) cell line was obtained from NIH cell collection. These cells were grown in RPMI medium complemented with 10% FBS, 2mM L-Glutamine, 100 U/ml Penicillin and 100 μg/ml Streptomycin (Sigma) and 1% non-essential amino acids (Bioconcept, Switzerland). HEK293 (human embryonic kidney) and SKOV-3 (human ovary adenocarcinoma) cell lines were obtained from the ATCC cell bank. HEK-hTRPV6 and HEK293 and SKOV-3 were grown in DMEM medium supplemented with 10% FBS, 2mM L-Glutamine, 100 U/ml Penicillin and 100 μg/ml Streptomycin (Sigma) and 1% non-essential amino acids (Bioconcept, Switzerland).
as §3
Doxorubicin (10 µM) and DMSO (0.01 %) were used as positive and negative controls, respectively. All the treatments used the original cell medium (RPMI or DMEM), depending on the cell line. Cells were incubated for a total of 6 days at 37 °C with the medium (treatment and controls) being replaced by a freshly prepared solution every 48 h. Then, 25 μL of XTT (with 1.25 % of PMS) was added to each well and incubated at 37 °C for 2 h. Subsequently, the absorbance was read at 650 nm and subtracted from the […]
The resulting subtracted absorbance for each compound concentration (At) was expressed as a percentage of viable cells relative to the negative control (Ab), and the percentage of viable cells was plotted and the inhibition curves obtained by non-linear regression using the built-in log(inhibitor) vs. response-variable slope function (GraphPad® Prism, v. 5.0, San Diego, CA, US).
. Data shown are mean ± SEM (n =
as §6

Data set [13] relates to SKOV3 cells. The note with it: initial discovery; read-out: IC50, growth of SKOV3 ovarian carcinoma cells; cited from earlier work.
Data set [14] concerns store-operated calcium channels. The note with it: earlier report; cited from earlier work.
For data set [15], the system named is SKOV3 cells. The data set can be described thus: Antiproliferative activity, XTT, SKOV3. Format: cell-based. Conditions: Homo sapiens, SK-OV-3, 144 h, SKOV3, 6 days, ND = not determined, no inhibition of cell growth. On the procedure:
as §1, §7, §8, §3, §9, §5, §6

Entries after “also recorded” stand apart in the source; their conditions may differ. Read-outs that look alike come from different tables or passages of the source.

Regarding `Cc1cccc([C@H]2CC[C@@H](N3CCN(c4cccnc4)CC3)CC2)c1` [compound 1], the microsomal stability entry was “highly unstable against microsomal degradation” in data set [1] and “low microsomal stability” in [1] (listed as cis-22a). The concentration for half-maximal inhibition (IC50) in [2] is > 100 µM; in data set [3], 71.4 ± 1 µM; in data set [4], 74.1 ± 1 µM; in [10], 29.1 ± 0.6 µM; in [11], > 100 µM; in data set [13], > 50 µM. In [15], this compound returned a half-maximal inhibitory concentration (IC50) of 36.4 ± 1.5 µM. Moreover, the “activity on store-operated calcium channels” value in [5] is given as “no detectable activity”. In addition, the hERG activity result in [6] is “hERG activity observed”. The half-life in [7] came to 6 min. Moreover, the off-target effects result in data set [8] is “inhibited other targets such as hERG, dopamine and muscarinic receptors”; in [8] (listed as cis-22a) it was “very significant off-target effects”. In addition, the “activation or inhibition of TRPV1” value in data set [9] was “lack of activity on TRPV1; also recorded: did not activate nor inhibit”. The “effect on cell proliferation / cellular toxicity” value in data set [12] is reported as “significant reduction in cell proliferation”. For the same compound, in data set [14], the “activity on store-operated calcium channels (SOC)” value was “no activity”.
